From PubChem BioAssay AID248 (DTP/NCI, 2004)
“And” between values parts separate entries of the source, which are not always exact repeats. Equal entries are not always repeated. Toxic doses and inconclusive results are not listed. Cut-off read from the data, not from the text of the source: active = T/C of 150% or more; inactive = T/C below 125%.

Tested on: L1210 leukemia ip in BDF1 mice, survival T/C
Test: NCI In Vivo Anticancer Drug Screen. Data for tumor model L1210 Leukemia (intraperitoneal) in B6D2F1 (BDF1) mice
Conditions: endpoint: mean survival time, higher = longer survival
Method in brief: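 In this screen, tumor-bearing mice given compound are compared to those given vehicle, and their survival values are reported as a treated-to-control quotient.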

[1] = dose: 100.0 mg/kg/injection, schedule: Q01DX001 (ip), vehicle: Klucel (hydroxypropylcellulose) (HPC)
[2] = dose: 200.0 mg/kg/injection, schedule: Q01DX001 (ip), vehicle: Klucel (hydroxypropylcellulose) (HPC)
[3] = dose: 400.0 mg/kg/injection, schedule: Q01DX001 (ip), vehicle: Klucel (hydroxypropylcellulose) (HPC)
[4] = dose: 10.0 mg/kg/injection, schedule: Q01DX001 (ip), vehicle: saline
[5] = dose: 20.0 mg/kg/injection, schedule: Q01DX001 (ip), vehicle: saline
[6] = dose: 40.0 mg/kg/injection, schedule: Q01DX001 (ip), vehicle: saline
[7] = dose: 100.0 mg/kg/injection, schedule: Q01DX009 (ip), vehicle: saline with Tween-80
[8] = dose: 100.0 mg/kg/injection, schedule: Q04DX002 (ip), vehicle: Klucel (hydroxypropylcellulose) (HPC)
[9] = dose: 200.0 mg/kg/injection, schedule: Q01DX009 (ip), vehicle: saline with Tween-80
[10] = dose: 100.0 mg/kg/injection, schedule: Q04DX003 (ip), vehicle: Klucel (hydroxypropylcellulose) (HPC)
[11] = dose: 200.0 mg/kg/injection, schedule: Q04DX003 (ip), vehicle: Klucel (hydroxypropylcellulose) (HPC)
[12] = dose: 400.0 mg/kg/injection, schedule: Q04DX003 (ip), vehicle: Klucel (hydroxypropylcellulose) (HPC)
[13] = dose: 100.0 mg/kg/injection, schedule: Q01DX009 (ip), vehicle: Klucel (hydroxypropylcellulose) (HPC)
[14] = dose: 200.0 mg/kg/injection, schedule: Q01DX009 (ip), vehicle: Klucel (hydroxypropylcellulose) (HPC)
[15] = dose: 400.0 mg/kg/injection, schedule: Q01DX009 (ip), vehicle: Klucel (hydroxypropylcellulose) (HPC)

Measured: T/C

CCOC(=O)NP(=O)(Nc1ccc(C)cc1)Nc1ccc(C)cc1
inactive: dose: 50.0 mg/kg/injection, schedule: Q01DX001 (ip), vehicle: carboxymethylcellulose (CMC) 104 % of control | dose: 100.0 mg/kg/injection, schedule: Q01DX001 (ip), vehicle: carboxymethylcellulose (CMC) 98 % of control | dose: 200.0 mg/kg/injection, schedule: Q01DX001 (ip), vehicle: carboxymethylcellulose (CMC) 95 % of control | dose: 400.0 mg/kg/injection, schedule: Q01DX001 (ip), vehicle: carboxymethylcellulose (CMC) 98 % of control

Cc1nc2c3nc(C)oc3c3ccccc3c2o1
inactive: [1] 97 % of control | [2] 89 % of control | [3] 86 % of control

CCOC(=O)N1Cc2cc3cc(OC)ccc3nc2C1
inactive: dose: 50.0 mg/kg/injection, schedule: Q01DX009 (ip), vehicle: acetone 98 % of control | dose: 100.0 mg/kg/injection, schedule: Q01DX009 (ip), vehicle: acetone 95 % of control | dose: 100.0 mg/kg/injection, schedule: Q04DX003 (ip), vehicle: saline 94 % of control | dose: 200.0 mg/kg/injection, schedule: Q01DX009 (ip), vehicle: acetone 95 % of control | dose: 200.0 mg/kg/injection, schedule: Q04DX003 (ip), vehicle: saline 89 % of control | dose: 400.0 mg/kg/injection, schedule: Q04DX003 (ip), vehicle: saline 105 % of control

NC(=O)c1nnc(-c2ccccn2)[nH]c1=O
inactive: [1] 93 % of control

CC1=C(Cl)C(=O)C(C)=C(Cl)C1=O
inactive: [4] 90 % of control | [5] 92 % of control | [6] 108 % of control

O=C(Oc1cc(Cl)c(S(=O)(=O)F)cc1Cl)c1ccccc1Cl
inactive: dose: 100.0 mg/kg/injection, schedule: Q04DX003 (ip), vehicle: carboxymethylcellulose (CMC) 88 % of control | dose: 200.0 mg/kg/injection, schedule: Q04DX003 (ip), vehicle: carboxymethylcellulose (CMC) 90 % of control | dose: 400.0 mg/kg/injection, schedule: Q04DX003 (ip), vehicle: carboxymethylcellulose (CMC) 88 % of control

CC(C)=CCC/C(C)=C/COC(=O)C(CC=C(C)C)CCN1CCN(CC=C(C)C)CC1 (stereo unspecified)
inactive: [7] 98 % of control | [8] 88 % of control | [9] 92 % of control | dose: 200.0 mg/kg/injection, schedule: Q04DX002 (ip), vehicle: Klucel (hydroxypropylcellulose) (HPC) 92 % of control | dose: 400.0 mg/kg/injection, schedule: Q04DX002 (ip), vehicle: Klucel (hydroxypropylcellulose) (HPC) 98 % of control

CCCn1/c(=N\N=O)sc2ccccc21
inactive: [10] 93 % of control | [11] 95 % of control | [12] 92 % of control

O=C1c2ccccc2-c2ccc(NC(=O)C(F)(F)F)cc21
inactive: dose: 100.0 mg/kg/injection, schedule: Q01DX001 (ip), vehicle: saline with Tween-80 92 % of control | dose: 200.0 mg/kg/injection, schedule: Q01DX001 (ip), vehicle: saline with Tween-80 90 % of control | dose: 400.0 mg/kg/injection, schedule: Q01DX001 (ip), vehicle: saline with Tween-80 92 % of control

CCCCCCC(=O)CC(C)C
inactive: [13] 101 % of control | [10] 97 % of control | [14] 103 % of control | [11] 102 % of control | [15] 109 % of control | [12] 107 % of control

COc1cc(CC#N)c(OC)cc1CC#N
inactive: [7] 94 % of control | dose: 100.0 mg/kg/injection, schedule: Q04DX003 (ip), vehicle: saline with Tween-80 89 % of control | [9] 89 % of control | dose: 200.0 mg/kg/injection, schedule: Q04DX003 (ip), vehicle: saline with Tween-80 89 % of control | dose: 400.0 mg/kg/injection, schedule: Q01DX009 (ip), vehicle: saline with Tween-80 99 % of control | dose: 400.0 mg/kg/injection, schedule: Q04DX003 (ip), vehicle: saline with Tween-80 88 % of control

CCCCCCCNc1ccc(S(=O)(=O)c2ccc(NCCCCCCC)c([N+](=O)[O-])c2)cc1[N+](=O)[O-]
inactive: dose: 25.0 mg/kg/injection, schedule: Q01DX009 (ip), vehicle: DMSO 94 % of control | dose: 50.0 mg/kg/injection, schedule: Q01DX009 (ip), vehicle: DMSO 98 % of control | dose: 100.0 mg/kg/injection, schedule: Q01DX005 (ip), vehicle: DMSO 90 % of control | dose: 100.0 mg/kg/injection, schedule: Q01DX009 (ip), vehicle: DMSO 94 % of control and 98 % of control | dose: 100.0 mg/kg/injection, schedule: Q04DX002 (ip), vehicle: DMSO 100 % of control | dose: 200.0 mg/kg/injection, schedule: Q01DX009 (ip), vehicle: DMSO 101 % of control | dose: 200.0 mg/kg/injection, schedule: Q04DX002 (ip), vehicle: DMSO 88 % of control | dose: 400.0 mg/kg/injection, schedule: Q01DX005 (ip), vehicle: DMSO 90 % of control | dose: 400.0 mg/kg/injection, schedule: Q01DX009 (ip), vehicle: DMSO 100 % of control | dose: 400.0 mg/kg/injection, schedule: Q04DX002 (ip), vehicle: DMSO 96 % of control

NCCCCC(N)C(=O)Nc1ccc(Nc2ccc(NC(=O)C(N)CCCCN)cc2)cc1 (stereo unspecified)
inactive: dose: 5.0 mg/kg/injection, schedule: Q01DX001 (ip), vehicle: saline 92 % of control | [4] 90 % of control | [5] 92 % of control | [6] 93 % of control | dose: 80.0 mg/kg/injection, schedule: Q01DX001 (ip), vehicle: saline 93 % of control

O=c1ccnc(C(F)(F)F)[nH]1
inactive: dose: 44.0 mg/kg/injection, schedule: Q01DX Z (ip), vehicle: methylcellulose (MC) 87 % of control | dose: 66.0 mg/kg/injection, schedule: Q01DX Z (ip), vehicle: methylcellulose (MC) 96 % of control | dose: 100.0 mg/kg/injection, schedule: Q01DX Z (ip), vehicle: methylcellulose (MC) 101 % of control

Cc1ccc(CNC(=O)Cc2ccccc2)cc1C
inactive: dose: 100.0 mg/kg/injection, schedule: Q04DX002 (ip), vehicle: saline with Tween-80 100 % of control | dose: 200.0 mg/kg/injection, schedule: Q04DX002 (ip), vehicle: saline with Tween-80 100 % of control | dose: 400.0 mg/kg/injection, schedule: Q04DX002 (ip), vehicle: saline with Tween-80 110 % of control

CCCCCCCCC(O)CCCCC (stereo unspecified)
inactive: [13] 100 % of control | [10] 106 % of control | [14] 98 % of control | [11] 103 % of control | [15] 94 % of control | [12] 109 % of control

Nc1cccc(C(O)c2ccccc2)c1 (stereo unspecified)
inactive: [10] 90 % of control | [11] 92 % of control | [12] 95 % of control

CCC(=O)n1c(=O)n(C2CCN(CCCS(=O)(=O)c3ccccc3)CC2)c2ccccc21
inactive: dose: 50.0 mg/kg/injection, schedule: Q01DX001 (ip), vehicle: Klucel (hydroxypropylcellulose) (HPC) 95 % of control | [1] 95 % of control | [2] 100 % of control

O=C(OCC#CC#CCOC(=O)c1cccc2ccccc12)c1cccc2ccccc12
inactive: [13] 93 % of control | [14] 89 % of control | [15] 93 % of control

CC1=NN(c2ccc(S(=O)(=O)O)cc2)/C(=N/N=C(N)N)C1
inactive: dose: 15.0 mg/kg/injection, schedule: Q01DX Z (ip), vehicle: carboxymethylcellulose (CMC) 96 % of control | dose: 30.0 mg/kg/injection, schedule: Q01DX Z (ip), vehicle: carboxymethylcellulose (CMC) 96 % of control | dose: 60.0 mg/kg/injection, schedule: Q01DX Z (ip), vehicle: carboxymethylcellulose (CMC) 97 % of control and 100 % of control | dose: 120.0 mg/kg/injection, schedule: Q01DX Z (ip), vehicle: carboxymethylcellulose (CMC) 100 % of control and 102 % of control | dose: 240.0 mg/kg/injection, schedule: Q01DX Z (ip), vehicle: carboxymethylcellulose (CMC) 101 % of control | dose: 480.0 mg/kg/injection, schedule: Q01DX Z (ip), vehicle: carboxymethylcellulose (CMC) 97 % of control

Oc1ccc(O)c2[nH]c(-c3ccc(Cl)cc3)cc12
inactive: dose: 25.0 mg/kg/injection, schedule: Q04DX002 (ip), vehicle: Klucel (hydroxypropylcellulose) (HPC) 94 % of control | dose: 50.0 mg/kg/injection, schedule: Q04DX002 (ip), vehicle: Klucel (hydroxypropylcellulose) (HPC) 100 % of control | [8] 100 % of control

c1ccc2c(c1)C1CCCCC2c2ccccc21
inactive: [1] 102 % of control | [2] 97 % of control | [3] 100 % of control
